How the values were obtained:
[1] = test system: Spodoptera littoralis (Egyptian Cotton Leafworm); experiment: Example B1: activity against Spodoptera littoralis, larvicide, feeding/residual contact, preventive (cotton leaf discs); type: in vivo; conditions: foliar, 72 h, 3 days after treatment, L1 larvae
Text: Activity Against Spodoptera littoralis (Egyptian Cotton Leafworm)
(§1) (Larvicide, Feeding/Residual Contact Activity, Preventive)
The samples are checked for mortality, repellent effect, feeding behaviour, and growth regulation 3 days after treatment. In this test, compounds listed in Table P above show good activity. In particular compounds P.1, P.2, P.3, P.4, P.5, P.6, P.7, P.9, P.10, P.11, P.12, P.13, P.15, P.16, P.17, P.18, P.19, P.20, P.21, P.22, P.23, P.24, P.25, P.26, P.27, P.28, P.29, P.30, P.31, P.32, P.33, P.34, P.35, P.36, P.37, P.38, P.39, P.40, P.41, P.42, P.43, P.44, P.45, P.46, P.47, P.48, P.49, P.50, P.51, P.52, P.53, P.54, P.55, P.56, P.57, P.58, P.59, P.60, P.61, P.63, P.64, P.67, P.68 and P.70 show an activity of over 80% at a concentration of 400 ppm.

[2] = test system: Heliothis virescens (Tobacco Budworm); experiment: Example B2: activity against Heliothis virescens, ovo-larvicide, feeding/contact, curative; type: in vivo; conditions: 96 h, 4 days incubation, eggs 0-24 h old
Description: Activity Against Heliothis virescens (Tobacco Budworm)
(Ovo-Larvicide, Feeding/Contact Activity, Curative)
Eggs (0-24 h old) are placed in 24-well microtiter plate on artificial diet and treated with test solutions by pipetting. After an incubation period of 4 days, samples are checked for egg mortality, larval mortality, and growth regulation.

[3] = test system: Plutella xylostella (Diamond Back Moth); experiment: Example B3: Plutella xylostella, larvicide, feeding/residual contact, preventive (artificial diet MTP); type: in vivo; conditions: 120 h, 5 days incubation, L2 larvae
Description: Plutella xylostella (Diamond Back Moth)
as §1
24-well microtiter plate (MTP) with artificial diet is treated with test solutions by pipetting. After drying, the MTP's are infested with larvae (L2)(10-15 per well). After an incubation period of 5 days, samples are checked for larval mortality, antifeedant and growth regulation. In this test, compounds listed in Table P above show good activity. In particular compounds P.1, P.2, P.3, P.4, P.5, P.6, P.7, P.9, P.10, P.11, P.12, P.13, P.15, P.16, P.17, P.18, P.19, P.20, P.21, P.22, P.23, P.25, P.26, P.27, P.28, P.29, P.30, P.31, P.32, P.33, P.34, P.35, P.36, P.37, P.38, P.39, P.40, P.41, P.42, P.43, P.44, P.46, P.47, P.48, P.49, P.50, P.51, P.52, P.53, P.54, P.55, P.56, P.57, P.58, P.59, P.60, P.61, P.63, P.64, P.67, P.68, P.69 P.70, P.72, P.74, P.77, P78 and P.79 show an activity of over 80% at a concentration of 400 ppm.

[4] = test system: Diabrotica balteata (Corn Root Worm); experiment: Example B4: Diabrotica balteata, larvicide, feeding/residual contact, preventive; type: in vivo; conditions: 120 h, 5 days incubation, L2 larvae
Description: Diabrotica balteata (Corn Root Worm)
as §1
After drying, the MTP's are infested with larvae (L2)(6-10 per well). After an incubation period of 5 days, samples are checked for larval mortality, antifeedant and growth regulation. In this test, compounds listed in Table P above show good activity. In particular compounds P.1, P.2, P.5, P.6, P.10, P.11, P.12, P.13, P.15, P.16, P.17, P.18, P.19, P.24, P.25, P.27, P.28, P.29, P.30, P.31, P.33, P.34, P.35, P.37, P.38, P.39, P.42, P.43, P.44, P.45, P.46, P.47, P.48, P.49, P.50, P.52, P.53, P.65, P.67, P.68, P.69, P.70, P.71, P.72, P.75, P.78, and P.79 show an activity of over 80% at a concentration of 400 ppm.

[5] = test system: Frankliniella occidentalis (Western Flower Thrips); experiment: Example B9: activity against Frankliniella occidentalis (bean leaf discs or bean plants); type: in vivo; conditions: foliar, 6 days (leaf discs) or 14 days (plants) after infestation
Description: Activity Against Frankliniella occidentalis (Western Flower Thrips)
Bean leaf discs on agar in petri dishes or bean plants in a spray chamber are treated with diluted test solutions. After drying leaf discs are cut and placed in plastic cups on the surface of an agar layer and infested with mixed population. 6 days (leaf discs) or 14 days (plants) after the infestation, samples are checked for reduction of treated population and compared to the non treated population.

[6] = test system: Aphis craccivora (Pea Aphid); experiment: Example B11: activity against Aphis craccivora, mixed population, systemic/feeding; type: in vivo; conditions: 144 h, 6 days, roots in test solution (systemic)
Text: Activity Against Aphis craccivora (Pea Aphid)
(Mixed Population, Systemic/Feeding)
6 days later, samples are checked for mortality.

[7] = test system: Thrips tabaci (Onion Thrips); experiment: Example B7: activity against Thrips tabaci, mixed population, feeding/residual contact, preventive; conditions: 144 h, read-out: activity
[8] = test system: Myzus persicae (Green Peach Aphid); experiment: Example B6: activity against Myzus persicae, mixed population, systemic/feeding, curative (pea seedling roots); conditions: 144 h, read-out: activity
[9] = test system: Myzus persicae (Green Peach Aphid); experiment: Example B5: activity against Myzus persicae, mixed population, feeding/residual contact, preventive (sunflower leaf discs); conditions: foliar, 144 h, read-out: activity
[10] = test system: Cydia pomonella (Codling Moth); experiment: Example B8: activity against Cydia pomonella (paraffin-coated diet cubes); type: in vivo; conditions: 336 h, 14 days incubation at 26° C.
Description: Activity Against Cydia pomonella (Codling Moth)
Standard Cydia diet cubes (1.5 cm width) are pierced with a tooth-pick and are immersed in liquid paraffin (ca. 80° C.). After the paraffin coat has hardened, an aqueous emulsion containing 400 ppm of active ingredient is applied using a De Vilbis sprayer (25 ml, 1 bar). After the spray coating has dried, the cubes are put into plastic containers which are then populated with two freshly hatched Cydia pomonella (1st instar). The containers are then closed with a plastic cap. After 14 days incubation at 26° C. and 40-60% relative humidity, the survival rate of the caterpillars as well as their growth regulation is determined. In this test, compounds listed in Table P above show good activity. In particular compounds P.10, P.11, P.12, P.18, P.19, P.20, P.29, P.30, P.31, P.32, P.33, P.34, P.35, P.37, P.38, P.39, P.42, and P.43 show an activity of over 80% at a concentration of 400 ppm.

Measured: pest or weed control at 400 ppm

CSCC(C)(C)NC(=O)c1c(NC(=O)c2cc(C(F)(F)F)nn2-c2ncccc2Cl)c(Cl)cc2cn[nH]c12 [P.13]
not listed: [10]
> 80%: all other assays above

CNC(=O)c1c(NC(=O)c2cc(C(F)(F)F)nn2-c2ncccc2Cl)c(Br)cc2cn[nH]c12 [P.17]
not listed: [6] | [7] | [10]
> 80%: all other assays above

Cc1ccc2c(C(=O)NC(C)C)c(NC(=O)c3cc(C(F)(F)F)nn3-c3ncccc3Cl)c(C)cc2n1 [P.20]
> 80%: [1] | [2] | [3] | [10]

O=C(NC1CC12CC2)c1c(NC(=O)c2cc(C(F)(F)F)nn2-c2ncccc2Cl)c(Cl)cc2cn[nH]c12 (stereo not shown) [P.31]
> 80%: [1] | [2] | [3] | [4] | [10] | [9]

CC1(NC(=O)c2c(NC(=O)c3cc(C(F)(F)F)nn3-c3ncccc3Cl)c(Cl)cc3cn[nH]c23)CSC1 [P.32]
not listed: [4] | [5] | [6]
> 80%: all other assays above

O=C(NC1(C2CC2)CC1)c1c(NC(=O)c2cc(Cl)nn2-c2ncccc2Cl)c(Cl)cc2cn[nH]c12 [P.45, 5-chloro-6-{[5-chloro-2-(3-chloro-pyridin-2-yl)-2H-pyrazole-3-carbonyl]-amino}-1H-indazole-7-carboxylic acid bicyclopropyl-1-ylamide]
not listed: [2] | [3] | [10]
> 80%: all other assays above

O=C(NC1(C2CC2)CC1)c1c(NC(=O)c2cc(OCC(F)(F)F)nn2-c2ncccc2Cl)c(Cl)cc2cn[nH]c12 [P.48]
not listed: [6] | [10]
> 80%: all other assays above

Cc1cc2cn[nH]c2c(C(=O)NC(C)C)c1NC(=O)c1cc(OCC(F)(F)F)nn1-c1ncccc1Cl [P.52, 6-{[2-(3-chloro-pyridin-2-yl)-5-(2,2,2-trifluoro-ethoxy)-2H-pyrazole-3-carbonyl]-amino}-5-methyl-1H-indazole-7-carboxylic acid isopropylamide]
not listed: [10]
> 80%: all other assays above

COc1cc(C(=O)Nc2c(Br)cc3cn[nH]c3c2C(=O)NC(C)(C)CS(C)(=O)=O)n(-c2ncccc2Cl)n1 [P.54]
not listed: [4] | [10]
> 80%: all other assays above

Cc1cc2cn[nH]c2c(C(=O)NC2(C3CC3)CC2)c1NC(=O)c1cc(OCC(F)(F)F)nn1-c1ncccc1Cl [P.70, 6-{[2-(3-chloro-pyridin-2-yl)-5-(2,2,2-trifluoro-ethoxy)-2H-pyrazole-3-carbonyl]-amino}-5-methyl-1H-indazole-7-carboxylic acid bicyclopropyl-1-ylamide]
not listed: [6] | [10]
> 80%: all other assays above

Source: patent publication US8658801B2, “Pesticides containing a bicyclic bisamide structure” (Syngenta Crop Protection, LLC, priority 2006, dated 2014)
